How the values were obtained:
[1] = tested on: I-Ek MHC class II molecules; details: Fig. 2 A legend; control peptide; no reference given; cited from earlier work
[2] = biological target: I-Ed MHC class II molecules (Mus musculus, UniProt P01904+P01915); details: Fig. 2 B legend; control peptide; no reference given; cited from earlier work
[3] = tested on: lymph node cells from mice immunized with the peptide; experiment: Lymph node / spleen T cell proliferation assay of peptide-immunized mice; type: cell-based, mouse
[4] = tested on: CD4+ T cell line B10.A-P11.2 (Ek-restricted, Ld 61-80-specific); experiment: T cell line B10.A-P11.2 proliferation assay; type: cell-based, mouse; details: no added peptide
[5] = tested on: BALB/c-dm2 lymph node T cells primed with Ld 61-80; experiment: T cell determinant mapping with overlapping 12 mers; type: cell-based, mouse; details: dm2 mice primed with Ld 61-80, single residue steps, Fig. 4
[6] = tested on: T cells from Ld 61-80-primed B10.A mice; details: H-2k class II-restricted; cited from earlier work
[7] = tested on: lymph node cells from mice immunized with the peptide; details: syngeneic B10.A mice; cited from earlier work
[8] = tested on: MHC class II-restricted presentation by APCs; details: cited from earlier work
[9] = tested on: CD4+ T cell line P69.2 (Ed-restricted, Ld 61-80-specific); experiment: T cell line P69.2 proliferation assay; type: cell-based, mouse; details: for natural presentation of self-peptide: no exogenously added peptide

For “HEL 1-17: known binder peptide in the I-Ek competition assay (KVFGRCELAAAMKRHGL; UniProt P00698 19-35, looked up, fragment)”, the “binding to I-Ek (control designation)” value [1] is given as “known binder”.

For “HEL 105-120: hen egg white lysozyme (HEL) 105-120 peptide known for its binding to Ed (MNAWVAWRNRCKGTDV; UniProt P00698 123-138, looked up, fragment)”, the “binding to I-Ed (control designation)” value [2] is given as “known binder”.

With EtLITQIAKGQEQWFILVNLR,T [Ld 61-80] the immunogenicity ([3]; (B10.A x B10.D2) F1 mice (Fig. 1 D)) was “immunogenic and therefore cryptic”, the “phenotype of self-peptide (cryptic or dominant)” value (“phenotype of self-peptide” below) ([3]; A.TL and B10.MBR mice) was “cryptic” and the immunogenicity ([3]; A/J mice (Table 1)) was “vigorous T cell responses”. The “phenotype of self-peptide” value ([3]; B10.A(5R) mice) was “dominant”, the “T cell proliferation after immunization” value ([3]; B10.A(5R) mice (Fig. 6), five mice tested individually) was “no T cell proliferation was detected” and the immunogenicity ([3]; B10.AKM mice (Table 2)) was “immunogenic”. For the same substance, the immunogenicity ([3]; B10.D2 mice (Table 1)) was “failed to respond”, the immunogenicity ([3]; BALB/c mice (Fig. 1 B)) was “nonimmunogenic” and the immunogenicity ([3]; DBA/2 mice (Table 1)) was “nonimmunogenic”. For the same substance, the immunogenicity ([3]; dm2 mutant mice, not expressing Ld (Fig. 1 C)) was “immunogenic”, the “phenotype of self-peptide” value ([3]; parental H-2s and H-2b mice) was “dominant” and the “natural presentation of self-peptide” value ([4]; B10.A splenocytes, Fig. 3 A) was “did not naturally process”. The “natural presentation of self-peptide” value ([4]; B10.A(5R) APCs, Fig. 7) was “present spontaneously”, the “core region of determinant (residues)” value [5] was 69-76 and the “core region of determinant (residues)” value [6] was 66-74. For the same substance, the “T cell response induced” value [7] was “potent MHC class II-restricted T cell responses”, the “in vitro presentation by BALB/c APCs” value ([8]; BALB/c APCs, self-MHC class II) was “regularly presented in vitro” and the “stimulation of Ld 61-80-specific class II-restricted T cell hybridoma” value ([8]; Ii-positive and -negative APCs) was “could be stimulated in the presence of both Ii- positive and -negative APCs”. The “TAP-1 requirement of class II presentation” value [8] was “does not require a functional TAP-1 protein”, the “natural presentation of self-peptide” value ([9]; (B10.A x B10.D2) F1 APCs, Fig. 3 C) was “could not spontaneously process and present” and the “stimulation of P69.2 in presence of specific peptide” value ([9]; B10.GD splenocytes (lacking Ed) as APCs) was “could not stimulate”. For the same substance, the “natural presentation of self-peptide” value ([9]; BALB/c APCs, Fig. 3 B) was “continuously process and present” and the “stimulation of P69.2 by added peptide” value ([9]; dm2 APCs, 60 h, [3H]thymidine last 12 h, Fig. 3 B) was “required”.

— article PMC2192203 (The Journal of Experimental Medicine, 1995)
